Results reported in paper PMC6630718, “Discovery of Novel UV-Filters with Favorable Safety Profiles in the 5-Arylideneimidazolidine-2,4-dione Derivatives Group” (Molecules, 2019).

Experiments:
[1] = In vitro photoprotection study of 2% (w/w) macrogol formulations on PMMA plates; details: for UVA PF / UVA/UVB Ratio / λc (critical wavelength): 2% (w/w) macrogol formulation F1 (Triacetin 4.8%); for SPFin vitro: 2% (w/w) macrogol formulation F1 (Tween 20, PEG-400, PEG-1500, Triacetin 4.8%)
How it was run: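 Compounds at 2% in macrogol (PEG-400/PEG-1500) formulations, predissolved in triacetin:Tween 20 (1:9) or DMSO; 32.5 mg applied to 25 cm² PMMA plates (5 µm roughness), glycerin-treated plate as reference. Per EN ISO 24443:2012, modified: reflectance absorbance 290–400 nm in 1 nm steps, averaged over 12 scans.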

[2] = Solubility in cosmetic solvents / macrogol formulations; type: physicochemical; details: typical cosmetic solvents / formulations used
From the text: The composition of formulations and concentration of tested compounds were based on their limited solubility. N-monosubstituted compounds 2a–2e were insoluble at desirable concentrations in the typical solvents used in cosmetic formulations such as alcohols, triacetin, surfactants, and co-surfactants. To dissolve compounds 2a and 2b before incorporation to the formulation DMSO: Tween 20 (1:9 w/w) was used, for less soluble 2c–2e it was necessary to use DMSO alone as solvent. […] Thus the detailed composition of the formulations is as follows: F1–Tween 20 43.2%, PEG-400 25%, PEG-1500 25%, Triacetin 4.8%, tested compound 2%; F2–Tween 20 43.2%, PEG-400 25%, PEG-1500 25%, DMSO 4.8%, tested compound 2%; F3–PEG-400 25%, PEG-1500 25%, DMSO 48%, tested compound 2%. Considering the disadvantages of currently reported macrogol formulations and the low concentration achieved for the tested compounds (2%), we plan to work on cosmetic emulsions containing the most promising derivatives at higher concentrations as well as required excipients including preservatives, antioxidants, etc. This research will be carried out in the near future.

Structure (SMILES)	UVA PF [1]	UVA/UVB Ratio [1]	λc (critical wavelength) [1]	SPFin vitro [1]	solubility (in words) [2]
CCOC(=O)CN1C(=O)/C(=C/c2ccc(OC)cc2)N(CC(=O)OCC)C1=O [Compound 3b, Diethyl 2,2′-((Z)-4-(4-methoxybenzylidene)-2,5-dioxoimidazolidine-1,3-diyl)diacetate]	2.59 ± 0.23	0.84 ± 0.08	366 nm	3.07 ± 0.04	very good solubility
CCOC(=O)CN1C(=O)/C(=C/C=C/c2ccc(OC)cc2)N(CC(=O)OCC)C1=O [Compound 4g, Diethyl 2,2′-((Z)-4-((E)-3-(4-methoxyphenyl)allylidene)-2,5-dioxoimidazolidine-1,3-diyl)diacetate]	6.83 ± 0.05	4.50 ± 0.32	391 nm	1.68 ± 0.04	
